Counter-ions that a name gives are not always drawn. Like-named read-outs stand apart in the source and are kept apart here.
Assays:
α4β2 nicotine receptor = α4β2 nicotine receptor (Rattus norvegicus, UniProt P09483+P12390); experiment: Test A: [3H]cytisine binding
serotonin transporter = serotonin transporter (Homo sapiens, UniProt P31645); experiment: Binding to serotonin transporter sites
dopamine D2 receptors = dopamine D2 receptors (Homo sapiens, UniProt P14416); experiment: Binding to dopamine D2 receptors
dopamine D2 receptors, sequence (P14416 whole entry): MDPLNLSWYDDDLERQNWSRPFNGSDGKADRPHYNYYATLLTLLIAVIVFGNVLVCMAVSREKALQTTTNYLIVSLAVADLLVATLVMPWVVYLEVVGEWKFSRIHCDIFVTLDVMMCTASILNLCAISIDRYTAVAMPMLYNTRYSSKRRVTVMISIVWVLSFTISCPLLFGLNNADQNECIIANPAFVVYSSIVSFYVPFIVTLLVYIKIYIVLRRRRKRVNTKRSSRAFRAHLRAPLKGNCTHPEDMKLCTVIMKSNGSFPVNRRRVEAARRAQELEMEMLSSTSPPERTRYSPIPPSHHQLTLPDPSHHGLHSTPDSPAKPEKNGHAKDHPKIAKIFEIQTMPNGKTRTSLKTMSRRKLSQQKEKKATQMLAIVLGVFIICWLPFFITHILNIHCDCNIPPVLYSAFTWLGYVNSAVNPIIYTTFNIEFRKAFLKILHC

dopamine transporter = dopamine transporter (Homo sapiens, UniProt Q01959); experiment: Binding to dopamine transporter sites
dopamine transporter, sequence (Q01959 whole entry): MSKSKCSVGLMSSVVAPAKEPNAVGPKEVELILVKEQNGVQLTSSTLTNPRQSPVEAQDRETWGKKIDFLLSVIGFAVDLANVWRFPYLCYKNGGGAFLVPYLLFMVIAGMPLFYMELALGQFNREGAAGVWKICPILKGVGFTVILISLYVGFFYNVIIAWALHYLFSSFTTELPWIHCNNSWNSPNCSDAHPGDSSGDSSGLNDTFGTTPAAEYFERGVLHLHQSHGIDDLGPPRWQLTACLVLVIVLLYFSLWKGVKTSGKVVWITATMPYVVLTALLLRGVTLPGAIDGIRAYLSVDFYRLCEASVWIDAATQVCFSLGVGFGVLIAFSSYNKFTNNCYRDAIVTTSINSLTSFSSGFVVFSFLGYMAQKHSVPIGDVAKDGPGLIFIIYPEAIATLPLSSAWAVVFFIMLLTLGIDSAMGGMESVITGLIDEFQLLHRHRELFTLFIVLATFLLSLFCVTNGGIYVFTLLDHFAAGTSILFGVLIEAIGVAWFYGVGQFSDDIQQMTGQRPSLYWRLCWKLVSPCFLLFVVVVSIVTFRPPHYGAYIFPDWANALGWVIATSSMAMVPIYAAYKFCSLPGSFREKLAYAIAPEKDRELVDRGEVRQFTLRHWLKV

[1] = test system: nicotinic acetylcholine receptor (nAChR); experiment: Test C: 86Rb+ efflux from rat cortical synaptosomes; format: cell-based
striatal synaptosomes = experiment: Test D: striatal [3H]dopamine release; format: cell-based, rat
[2] = test system: ovariectomized female rats; experiment: Test F: object recognition memory test; format: in vivo, rat
hippocampal synaptosomes = experiment: Test E: [3H]ACh release; format: cell-based, rat
Method: Drug-induced release of [^3H]ACh from hippocampal synaptosomes was measured as described by Sullivan et al. (1997). (J. Pharmacol. Exptl. Ther. 283: 235-246). The F4 synaptosomal fraction was washed with Kreb's buffer containing 118.5 mM NaCl, 25 mM NaHCO3, 1.2 mM KCl, 1.2 mM KH2PO4, 2.5 mM CaCl2, 2.5 mM MgCl2, 10 mM glucose gassed with 95% O2/5% CO2 to pH 7.4 and re-suspended at 1 mg protein/mL. The synaptosomes were loaded with [^3H]choline by incubation with 0.8 μM [^3H]choline (2 Ci/mmol). Aliquots of the incubation mixture were then loaded into the perfusion chamber of a Brandell harvester and perfused with Kreb's buffer (37° C.) at a flow rate of 0.25 mL/min. Three-minute fractions were collected and measured for radioactivity. Drugs for study were administered as 20-s pulses. The [^3H]ACh release evoked by study compounds was normalized to (−)-nicotine-evoked release and to the total radioactivity accumulated by synaptosomes. Evoked release of [^3H]ACh from rat hippocampal synaptosomes was measured as the area under the peak above base release. The EC50 value is determined by nonlinear least squares regression analysis.

[3] = target: α4β2 nicotinic acetylcholine receptor subtype (Rattus norvegicus, UniProt P09483+P12390); conditions: cited from earlier work
α4β2 nicotinic acetylcholine receptor subtype, sequence (P09483 31-630): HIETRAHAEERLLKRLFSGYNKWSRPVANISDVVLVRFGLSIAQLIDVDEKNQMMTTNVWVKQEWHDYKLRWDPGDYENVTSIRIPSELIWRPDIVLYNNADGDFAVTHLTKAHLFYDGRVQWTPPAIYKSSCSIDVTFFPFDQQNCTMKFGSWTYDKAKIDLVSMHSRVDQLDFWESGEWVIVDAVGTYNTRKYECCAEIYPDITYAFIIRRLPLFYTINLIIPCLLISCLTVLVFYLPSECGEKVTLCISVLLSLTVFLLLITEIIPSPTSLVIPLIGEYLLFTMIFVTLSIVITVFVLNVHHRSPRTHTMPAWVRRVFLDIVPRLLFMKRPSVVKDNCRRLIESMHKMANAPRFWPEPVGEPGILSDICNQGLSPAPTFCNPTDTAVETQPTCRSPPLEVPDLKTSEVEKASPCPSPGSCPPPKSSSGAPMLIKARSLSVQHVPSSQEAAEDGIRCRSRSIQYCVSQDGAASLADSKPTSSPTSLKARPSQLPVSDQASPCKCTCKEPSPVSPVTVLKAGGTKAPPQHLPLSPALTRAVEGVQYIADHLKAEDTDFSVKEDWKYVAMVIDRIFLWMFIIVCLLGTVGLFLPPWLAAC
α4β2 nicotinic acetylcholine receptor subtype, sequence (P12390 25-500): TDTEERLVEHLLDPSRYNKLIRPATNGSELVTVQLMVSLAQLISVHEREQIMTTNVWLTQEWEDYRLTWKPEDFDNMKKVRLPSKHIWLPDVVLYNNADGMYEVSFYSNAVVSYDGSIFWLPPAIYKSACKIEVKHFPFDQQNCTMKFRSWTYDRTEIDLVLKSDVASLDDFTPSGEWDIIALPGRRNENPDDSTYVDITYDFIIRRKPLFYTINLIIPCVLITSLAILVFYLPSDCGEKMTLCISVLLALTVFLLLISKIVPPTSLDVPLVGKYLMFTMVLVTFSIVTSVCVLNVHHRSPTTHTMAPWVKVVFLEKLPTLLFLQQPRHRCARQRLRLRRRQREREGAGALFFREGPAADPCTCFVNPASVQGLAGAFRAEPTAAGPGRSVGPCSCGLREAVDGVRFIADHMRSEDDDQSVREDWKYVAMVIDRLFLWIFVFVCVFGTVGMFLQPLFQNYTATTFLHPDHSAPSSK

[4] = target: neuronal [3H]-cytisine binding site (Homo sapiens, UniProt P17787+P43681); conditions: read-out: Ki, neuronal [3H]-cytisine binding site; cited from earlier work
neuronal [3H]-cytisine binding site, sequence (P43681 29-627): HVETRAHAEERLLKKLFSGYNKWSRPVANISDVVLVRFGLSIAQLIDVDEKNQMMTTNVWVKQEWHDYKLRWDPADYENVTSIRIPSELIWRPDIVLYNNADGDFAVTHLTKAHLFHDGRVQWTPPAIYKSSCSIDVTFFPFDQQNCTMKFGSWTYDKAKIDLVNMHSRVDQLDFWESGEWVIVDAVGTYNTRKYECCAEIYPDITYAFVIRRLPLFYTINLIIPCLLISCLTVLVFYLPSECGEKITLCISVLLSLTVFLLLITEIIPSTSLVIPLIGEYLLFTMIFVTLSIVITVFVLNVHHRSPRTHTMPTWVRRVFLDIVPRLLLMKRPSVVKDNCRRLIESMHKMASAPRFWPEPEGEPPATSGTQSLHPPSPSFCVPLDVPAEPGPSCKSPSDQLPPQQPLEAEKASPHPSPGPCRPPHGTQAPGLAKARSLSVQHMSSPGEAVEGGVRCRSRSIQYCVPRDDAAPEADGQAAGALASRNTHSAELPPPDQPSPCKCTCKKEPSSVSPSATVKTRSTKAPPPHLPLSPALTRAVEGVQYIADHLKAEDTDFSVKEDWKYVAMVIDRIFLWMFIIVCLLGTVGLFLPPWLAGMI
neuronal [3H]-cytisine binding site, sequence (P17787 26-502): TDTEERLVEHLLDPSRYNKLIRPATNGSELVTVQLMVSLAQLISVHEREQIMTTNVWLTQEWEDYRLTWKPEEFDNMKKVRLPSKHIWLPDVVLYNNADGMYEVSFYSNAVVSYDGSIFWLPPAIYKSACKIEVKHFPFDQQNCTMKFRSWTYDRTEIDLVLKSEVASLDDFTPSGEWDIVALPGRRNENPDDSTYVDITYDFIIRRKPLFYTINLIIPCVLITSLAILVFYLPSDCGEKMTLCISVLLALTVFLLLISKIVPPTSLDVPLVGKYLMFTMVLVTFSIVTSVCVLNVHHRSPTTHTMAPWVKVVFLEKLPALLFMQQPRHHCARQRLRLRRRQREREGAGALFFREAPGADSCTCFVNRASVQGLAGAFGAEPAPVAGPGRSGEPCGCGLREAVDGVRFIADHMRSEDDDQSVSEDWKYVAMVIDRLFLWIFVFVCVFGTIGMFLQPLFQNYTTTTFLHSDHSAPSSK

Male Wistar rats = conditions: rat, in vivo
nerve-injured mice = experiment: Test G: Chung model of neuropathic pain, inhibition of tactile sensitivity; format: in vivo, mouse
Method: After hemostasis is confirmed, the wound is sutured with 3-0 silk thread and the skin closed with sterile wound clips. The animals are fully mobile within thirty minutes of cessation of anesthetic. As a control, in a separate group of animals, a sham surgery identical to the above (but without nerve ligation) is performed. Nociception is evaluated by responsiveness to multiple applications (10 per hindpaw) of a single vF filament to the plantar surface of each hind paw. When the stimulus is of sufficient force, the mouse will lick, withdraw and/or shake the paw; this action represents the behavioral endpoint. In nerve-injured mice, a vF filament (#3.61) exerting 3.3 mN of force elicited 66±1.3% responsiveness on the paw ipsilateral to the injury.
Inhibition of Tactile Sensitivity. Varying doses of the compounds are administered to test for inhibition of tactile sensitivity. Percent inhibition is determined relative to the mean number of paw withdrawals (PW) elicited by force and according to the following equation: [formula] Each mouse serves as its own control.
Three groups of animals were used for this experiment. Animals in each group received an intrathecal injection of physiological saline to assess the control response. […] The responses were assessed as described above.

α7 subtype = α7 subtype (Homo sapiens, UniProt P36544); conditions: read-out: Ki at the α7 subtype; cited from earlier work
α7 subtype, sequence (P36544 23-502): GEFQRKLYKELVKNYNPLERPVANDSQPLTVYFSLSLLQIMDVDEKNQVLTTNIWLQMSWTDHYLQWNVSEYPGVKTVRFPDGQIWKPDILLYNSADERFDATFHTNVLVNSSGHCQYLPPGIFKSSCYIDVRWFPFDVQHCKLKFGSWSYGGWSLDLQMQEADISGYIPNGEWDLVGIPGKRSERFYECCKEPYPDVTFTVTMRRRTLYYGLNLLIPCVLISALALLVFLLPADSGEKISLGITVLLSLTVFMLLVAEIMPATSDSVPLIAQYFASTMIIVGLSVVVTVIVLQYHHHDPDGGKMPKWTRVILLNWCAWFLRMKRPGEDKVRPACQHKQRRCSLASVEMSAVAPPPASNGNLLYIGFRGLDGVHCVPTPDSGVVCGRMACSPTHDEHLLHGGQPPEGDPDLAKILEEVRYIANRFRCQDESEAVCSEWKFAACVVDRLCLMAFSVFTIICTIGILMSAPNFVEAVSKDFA

[5] = test system: nicotinic acetylcholine receptor as PC12 cells; conditions: cited from earlier work
[6] = target: human muscle nicotinic acetylcholine receptor subtype (Homo sapiens, UniProt P02708+P07510+P11230+Q07001); conditions: cited from earlier work
[7] = rat brain, compounds tested in racemic form, read-out: Ki-[3H]Cytisine

α4β2 nicotine receptor, sequence (P09483 31-630): as the sequence (P09483 31-630) above
α4β2 nicotine receptor, sequence (P12390 25-500): as the sequence (P12390 25-500) above
serotonin transporter, sequence (P31645 whole entry): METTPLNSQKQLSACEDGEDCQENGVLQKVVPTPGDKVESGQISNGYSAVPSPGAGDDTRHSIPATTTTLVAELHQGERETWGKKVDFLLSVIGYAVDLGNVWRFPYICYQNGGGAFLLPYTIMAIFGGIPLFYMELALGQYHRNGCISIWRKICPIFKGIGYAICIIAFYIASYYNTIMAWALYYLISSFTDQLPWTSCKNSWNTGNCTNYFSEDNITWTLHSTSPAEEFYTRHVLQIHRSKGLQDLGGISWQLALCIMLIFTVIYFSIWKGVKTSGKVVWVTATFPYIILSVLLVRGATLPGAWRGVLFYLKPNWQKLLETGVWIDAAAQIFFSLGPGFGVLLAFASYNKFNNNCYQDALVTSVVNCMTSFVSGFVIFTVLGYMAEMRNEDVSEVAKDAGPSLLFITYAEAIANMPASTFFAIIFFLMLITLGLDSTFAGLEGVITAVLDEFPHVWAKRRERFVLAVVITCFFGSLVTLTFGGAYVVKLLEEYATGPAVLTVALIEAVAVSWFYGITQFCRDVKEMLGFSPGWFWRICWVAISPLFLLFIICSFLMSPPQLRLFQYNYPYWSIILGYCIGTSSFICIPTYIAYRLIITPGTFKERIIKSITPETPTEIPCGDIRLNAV

CN1CCCCC1CC1=Cc2ccccc2C1 (racemic) [Compound 13, 1-Methyl-2-(2-indenyl)methylpiperidine hydrochloride]
Ki (α4β2 nicotine receptor; [7]): 7.91 µM

COc1ccc2c(c1)CC(CC1CCCCN1C)=C2 (racemic) [Compound 14, 1-Methyl-2-(6-methoxyinden-2-yl)methylpiperidine hydrochloride]
Ki (α4β2 nicotine receptor; [7]): 8.95 µM

CN1CCCCC1CC1=Cc2ccc(O)cc2C1 (racemic) [Compound 15, 1-Methyl-2-(6-hydroxyinden-2-yl)methylpiperidine hydrochloride]
Ki (α4β2 nicotine receptor; [7]): > 10 µM

CN1CCCCC1C1CCc2ccccc2O1 (single isomer, unassigned) (as salt: salt) [Compound 1, erythro-2-(1-Methylpiperidin-2-yl)chroman]
melting point: 164 to 166 °C

CN1CCCCC1C1CCc2ccccc2O1 (single isomer, unassigned) [Compound 1, erythro-2-(1-Methylpiperidin-2-yl)chroman]
Ki (serotonin transporter): > 10 µM | Ki (dopamine D2 receptors): > 10 µM | Ki (dopamine transporter): > 10 µM | peak response of 86Rb+ release (in words) [1]: could match the peak response of S-(−)-nicotine | potency to stimulate the release of 86Rb+ (in words) [1]: lower potency | stimulation of [3H]dopamine release (in words) (striatal synaptosomes): failed to stimulate the release

CN1CCCCC1C1CCc2ccc(O)cc2O1 (single isomer, unassigned) [Compound 8, threo-7-Hydroxy-2-(1-methylpiperidin-2-yl)chroman]
Ki (serotonin transporter): > 10 µM | Ki (dopamine D2 receptors): > 10 µM | Ki (dopamine transporter): > 10 µM

CN1CCCC1C1CCc2ccc(O)cc2O1 (single isomer, unassigned) [Compound 11, erythro-7-Hydroxy-2-(1-methylpyrrolidin-2-yl)chroman]
exploration times versus saline-treated controls (in words) ([2]; exploration phase, 1 μmol/kg/day): not significantly different | time spent exploring the new object ([2]; recognition phase four hours after exploration, after 7 days s.c. osmotic mini pump, compound 11 1 μmol/kg/day, ARICEPT 1 mg/kg/day): 80.5±5 % (SEM) | stimulation of [3H]dopamine release (in words) (striatal synaptosomes; FIG. 10, compound 1 at doses of up to 10 μM): stimulates the release | [3H]Dopamine release (striatal synaptosomes; Table 2 summary in words): High intrinsic activity | [3H]ACh release (hippocampal synaptosomes; Table 2 summary in words): No intrinsic activity | stimulation of [3H]ACh release (in words) (hippocampal synaptosomes; cortical synaptosomes as worded, FIG. 11): little intrinsic activity

Cc1ncccc1OC[C@@H]1CCCN1 [ABT-089 (S)]
less potent than ABT-594 as an inhibitor of [3H]-nicotine binding [3]: about 300 fold

Cc1cc([C@@H]2CCCN2C)on1 [ABT-418]
Ki [4]: 0.0045 µM

COc1cc2c(cc1OC)C(=O)C(CC1CCN(Cc3ccccc3)CC1)C2 (centres unmarked) [ARICEPT, reference compound]
time spent exploring the new object ([2]; rat, in vivo): 60.1±5.4 % (SEM)

CN1CCCCC1C1CCc2ccc(O)cc2O1 (stereo not drawn) [Compound 3, erythro-7-Hydroxy-2-(1-methylpiperidin-2-yl)chroman]
Ki (serotonin transporter): > 10 µM | Ki (dopamine D2 receptors): > 10 µM | Ki (dopamine transporter): > 10 µM | time of death post-injection (Male Wistar rats; male, Wistar, ip): ≤ 4 min | lethal effects antagonized by mecamylamine pretreatment (Male Wistar rats): three of the four animals | observed effect after administration (Male Wistar rats; ip): severe convulsions | potency to stimulate the release of 86Rb+ (in words) ([1]; compound 3 at 1, 5, 10 and 100 μM, compound 1 at 10 and 100 μM, versus S-(−)-nicotine, FIG. 9): comparable potency | inhibition of tactile sensitivity (in words) (nerve-injured mice; intrathecal 30, 60 and 100 pmol): dose-dependent inhibition | inhibition of tactile sensitivity (nerve-injured mice; intrathecal, highest dose tested 100 pmol, FIG. 13): 60% | concentration at which peak effects on [3H]dopamine release are obtained (striatal synaptosomes): ~10 µM | effect on K+-evoked release of [3H]dopamine (in words) (striatal synaptosomes): appeared to suppress | stimulation of [3H]dopamine release (in words) (striatal synaptosomes): dose-dependent stimulation | stimulation of [3H]ACh release (in words) (hippocampal synaptosomes): can stimulate the release

CN1CCCCC1C1CCc2ccc(O)cc2O1 (stereo not drawn) [Compound 4, erythro-7-Hydroxy-2-(1-methylpiperidin-2-yl)chroman]
86Rb+ efflux [1]: High intrinsic activity | [3H]Dopamine release (striatal synaptosomes): Low to moderate activity | [3H]ACh release (hippocampal synaptosomes): High intrinsic activity

CN1CCCCC1C1CCc2c(O)cccc2O1 (stereo not drawn) [Compound 5, erythro-5-Hydroxy-2-(1-methylpiperidin-2-yl)chroman]
Ki (serotonin transporter): > 10 µM | Ki (dopamine D2 receptors): > 10 µM | Ki (dopamine transporter): > 10 µM

O=c1cccc2n1C[C@@H]1CNC[C@H]2C1 [Cytisine, reference compound]
Ki (α4β2 nicotine receptor; Ki-[3H]Cytisine): 0.0009 µM | Ki (α4β2 nicotine receptor; read-out: Ki-[3H]Cytisine): 0.00278 µM

CNCC/C=C/c1cccnc1 [RJR-2403]
Ki (α7 subtype): 36 µM | receptor activation (in words) [5]: does not significantly activate | receptor activation (in words) [6]: does not significantly activate

CN1CCC[C@H]1c1cccnc1 [S-(−)-nicotine, reference compound]
stimulation of [3H]dopamine release (in words) (striatal synaptosomes): dose-dependent

From patent US6846817B2 (Regents of the University of Minnesota, priority 1999, dated 2005)
